Measurements taken from paper PMC9679702, “BI 456906: Discovery and preclinical pharmacology of a novel GCGR/GLP-1R dual agonist with robust anti-obesity efficacy” (Molecular Metabolism, 2022).

What was measured:
GCGR = target: T1, GCGR (Rattus norvegicus, UniProt P30082); assay: Inhibition of glycogen synthesis in primary rat hepatocytes (14C-glucose incorporation); format: cell-based; conditions: 0.1% BSA, 22.5 mM glucose, 180 min, Figure 1B, read-out: GSi pIC50±SD, Rat Hepatocytes (converted)
T1 construct: endogenous in cells; host or cells: primary rat hepatocytes
T1 sequence (P30082 27-485): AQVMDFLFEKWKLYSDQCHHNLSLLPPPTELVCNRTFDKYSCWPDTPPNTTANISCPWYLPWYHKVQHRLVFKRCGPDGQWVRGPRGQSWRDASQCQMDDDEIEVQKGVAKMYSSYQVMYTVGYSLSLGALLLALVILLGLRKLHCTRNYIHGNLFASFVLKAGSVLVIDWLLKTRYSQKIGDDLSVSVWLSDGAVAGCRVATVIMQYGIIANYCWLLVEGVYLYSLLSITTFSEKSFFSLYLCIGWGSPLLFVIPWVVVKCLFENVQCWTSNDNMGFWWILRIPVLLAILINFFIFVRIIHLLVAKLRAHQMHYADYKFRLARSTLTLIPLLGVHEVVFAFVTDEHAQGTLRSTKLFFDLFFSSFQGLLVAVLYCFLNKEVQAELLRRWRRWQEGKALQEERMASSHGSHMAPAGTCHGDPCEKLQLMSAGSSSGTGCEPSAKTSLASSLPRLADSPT

GLP-1R [1] = target: T2, GLP-1R (Mus musculus, UniProt O35659); assay: Oral glucose tolerance test in lean mice, single dosing; format: in vivo
T2 construct: The acute potency of BI 456906 in engaging the GLP-1R was tested in lean mice after single dosing; tissue Janvier Labs; host or cells: whole animal: lean wild-type NMRI, C57BL6/J or B6J mice
T2 sequence (O35659 22-463): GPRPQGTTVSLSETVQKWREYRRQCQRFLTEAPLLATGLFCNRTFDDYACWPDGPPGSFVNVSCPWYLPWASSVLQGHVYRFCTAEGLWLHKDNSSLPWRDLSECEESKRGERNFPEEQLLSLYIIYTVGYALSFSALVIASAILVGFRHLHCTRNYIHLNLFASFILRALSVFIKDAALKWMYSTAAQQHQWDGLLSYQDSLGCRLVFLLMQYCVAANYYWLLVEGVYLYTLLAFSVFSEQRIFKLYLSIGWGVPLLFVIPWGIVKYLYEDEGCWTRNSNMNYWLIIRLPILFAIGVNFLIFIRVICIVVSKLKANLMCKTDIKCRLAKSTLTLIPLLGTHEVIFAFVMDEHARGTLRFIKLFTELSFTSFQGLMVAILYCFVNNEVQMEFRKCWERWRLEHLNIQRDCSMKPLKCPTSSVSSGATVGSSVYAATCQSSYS
Procedure: Mice were then fasted from −10 h, before bolus ingestion of glucose (2 g/kg) at 0 h. Blood glucose was measured at 0, 15, 30, 60, and 120 min, and compound exposure was measured at 120 min. In both experiments, glucose was measured in whole blood using a commercially available glucometer (GlucoSmart Swing) with test strips (MSP bodmann GmbH, Bobingen, Germany). Data are represented as mean ± standard error of mean (SEM) and were compared using GraphPad Prism 9 using two-way ANOVA, followed by Dunnett’s method for multiple comparisons versus vehicle. Significant differences were identified at p < 0.05.
(§2) ED50 values were calculated in GraphPad Prism 9 using the nonlinear fit tool.

GLP-1R [2] = target: T2, GLP-1R; assay: Inhibition of acute food intake in lean NMRI mice; format: in vivo; conditions: single SC dose, 24 h food intake
Procedure: The room temperature was controlled at 21 °C ± 1 °C, with 60% ± 20% humidity. […] Six-week-old male mice were randomized into treatment groups based on food intake and bodyweight (n = 8–10 per group). […] ED50 values were calculated in GraphPad Prism 9 using the nonlinear fit tool.

Human GLP-1R [3] = target: T3, Human GLP-1R (Homo sapiens, UniProt P43220); assay: cAMP stimulation in CHO-K1 cells expressing human GLP-1R (AlphaScreen); format: cell-based; conditions: read-out: functional potency (EC50) in CHO-K1 cells, GLP-1R
T3 sequence (P43220 24-463): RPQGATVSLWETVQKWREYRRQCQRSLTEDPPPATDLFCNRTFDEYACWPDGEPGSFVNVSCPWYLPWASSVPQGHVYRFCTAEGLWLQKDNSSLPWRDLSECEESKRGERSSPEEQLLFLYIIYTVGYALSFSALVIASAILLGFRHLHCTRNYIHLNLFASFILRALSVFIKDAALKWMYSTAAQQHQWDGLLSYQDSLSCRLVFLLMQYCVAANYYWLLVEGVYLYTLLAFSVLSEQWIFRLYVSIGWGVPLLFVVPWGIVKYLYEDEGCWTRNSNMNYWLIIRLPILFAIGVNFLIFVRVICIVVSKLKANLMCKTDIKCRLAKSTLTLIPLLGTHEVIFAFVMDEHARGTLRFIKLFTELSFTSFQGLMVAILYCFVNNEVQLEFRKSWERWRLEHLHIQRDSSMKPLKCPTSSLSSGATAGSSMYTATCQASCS

endogenous GCGR [4] = target: T4, endogenous GCGR (Rattus norvegicus, UniProt P30082); assay: cAMP stimulation in primary rat hepatocytes; format: cell-based; conditions: 0.1% BSA, Figure 1B, read-out: cAMP pEC50±SD, Rat Hepatocytes (converted)
T4 construct: endogenous in cells; host or cells: primary rat hepatocytes
T4 sequence (P30082 27-485): as the sequence (P30082 27-485) above

Human GLP-1R [5] = target: T3, Human GLP-1R; assay: Ex vivo bioactivity assay, HEK cells with human GLP-1R and CRE-luciferase, 100% mouse plasma
[6] = Energy expenditure study in diet-induced obese mice (indirect calorimetry, telemetry); format: in vivo
Procedure: Male C57BL/6J mice were obtained from Charles River Laboratories (Sulzfeld, Germany) at age 6–7 weeks. Animals were housed in groups of five in individually ventilated cages with a 12 h light/dark cycle (06:00–18:00) and were acclimatized for 1 week with ad libitum feeding. Animals were then fed a 45% HFD for 18 or 30 weeks, before randomization to groups with similar average bodyweight at Day −1. Animals were dosed QD with SC vehicle (25 mM phosphate-buffered saline) or BI 456906 (5, 10, or 20 nmol/kg) for 9 days, with energy metabolism, activity, and core body temperature measured each day. On Day 10, mice were sacrificed by cervical dislocation after a final bleeding by puncture of the retrobulbar venous plexus.
Energy metabolism was measured by indirect calorimetry. […] The mass flow of air through the respiratory cages and the concentrations of O2 and CO2 in inspired and expired air were measured every 10 min. […] Energy expenditure was analyzed by ANCOVA (see 2.16) for animals kept in single housing (dose groups 5 and 10 nmol/kg), applying statistical analysis using a general linear model framework including bodyweight as a covariate. […] Therefore, the regression-based ANCOVA was not calculated. Core body temperature and activity were measured by sensors (model 10TA10TA-F10; Data Sciences International, New Brighton, MA, USA) implanted in the peritoneal cavities. […]

Human GLP-1R [7] = target: T3, Human GLP-1R; assay: CRE-induced luciferase activity, HEK293 CRE-luc2P cells, human GLP-1R, in plasma; format: cell-based; conditions: n = 3
endogenous GCGR [8] = target: T5, endogenous GCGR (Mus musculus, UniProt Q61606); assay: cAMP stimulation in primary mouse hepatocytes; format: cell-based; conditions: 0.1% BSA, Figure 1B, read-out: cAMP pEC50±SD, Mouse Hepatocytes (converted)
T5 construct: endogenous in cells; host or cells: primary mouse hepatocytes
T5 sequence (Q61606 27-485): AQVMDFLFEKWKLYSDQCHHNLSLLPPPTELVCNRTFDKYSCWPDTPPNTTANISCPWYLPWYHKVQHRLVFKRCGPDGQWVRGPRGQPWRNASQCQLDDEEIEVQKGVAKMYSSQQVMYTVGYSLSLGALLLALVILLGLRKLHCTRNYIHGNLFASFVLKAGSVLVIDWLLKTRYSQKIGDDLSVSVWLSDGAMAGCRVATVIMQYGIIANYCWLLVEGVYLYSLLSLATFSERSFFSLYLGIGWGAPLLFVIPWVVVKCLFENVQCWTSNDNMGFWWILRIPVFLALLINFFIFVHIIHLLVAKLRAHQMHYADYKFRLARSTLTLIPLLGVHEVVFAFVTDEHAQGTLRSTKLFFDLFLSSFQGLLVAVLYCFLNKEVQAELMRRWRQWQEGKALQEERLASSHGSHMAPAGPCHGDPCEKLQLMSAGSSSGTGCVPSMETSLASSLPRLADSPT

Human GCGR [9] = target: T6, Human GCGR (Homo sapiens, UniProt P47871); assay: Ex vivo bioactivity assay, HEK cells with human GCGR and CRE-luciferase, 100% mouse plasma; conditions: DIO mice, plasma at study end, maximal dose of 30 nmol/kg
T6 sequence (P47871 26-477): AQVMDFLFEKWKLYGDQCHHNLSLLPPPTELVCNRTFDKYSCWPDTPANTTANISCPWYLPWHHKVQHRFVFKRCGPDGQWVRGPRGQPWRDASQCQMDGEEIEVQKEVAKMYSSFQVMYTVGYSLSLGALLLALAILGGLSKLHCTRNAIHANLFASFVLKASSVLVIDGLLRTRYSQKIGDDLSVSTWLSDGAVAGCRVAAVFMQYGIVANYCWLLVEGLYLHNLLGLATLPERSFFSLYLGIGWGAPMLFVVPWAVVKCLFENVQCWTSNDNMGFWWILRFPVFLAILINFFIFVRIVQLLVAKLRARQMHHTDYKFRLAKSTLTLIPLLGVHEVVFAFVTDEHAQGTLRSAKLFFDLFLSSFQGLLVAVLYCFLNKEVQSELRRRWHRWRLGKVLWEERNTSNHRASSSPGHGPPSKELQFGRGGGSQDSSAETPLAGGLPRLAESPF

GLP-1R [10] = target: T2, GLP-1R; assay: Acute gastric emptying (acetaminophen) in lean mice; format: in vivo
Procedure: After 60 min, ex vivo assays assessing acetaminophen, blood glucose, and terminal exposure were carried out. Acetaminophen was measured using an automated analyzer (Cobas Integra 400; Roche, Rotkreuz, Switzerland). […] ED50 values were calculated in GraphPad Prism 9 using the nonlinear fit tool.

Human GCGR [11] = target: T6, Human GCGR; assay: cAMP stimulation in CHO-K1 cells expressing human GCGR (AlphaScreen); format: cell-based; conditions: read-out: functional potency (EC50) in CHO-K1 cells, GCGR
endogenous GCGR [12] = target: T7, endogenous GCGR (Homo sapiens, UniProt P47871); assay: cAMP stimulation in primary human hepatocytes; format: cell-based; conditions: 0.1% BSA, Figure 1B, read-out: cAMP pEC50±SD, Human Hepatocytes (converted)
T7 construct: endogenous in cells; host or cells: primary human hepatocytes
T7 sequence (P47871 26-477): as above

GLP-1R [13] = target: T2, GLP-1R; assay: Intraperitoneal glucose tolerance test in lean mice, single dosing; format: in vivo; conditions: read-out: ED50 ipGTT
Procedure: Pre-treatment blood glucose was measured at −5 h. […] Baseline blood glucose was measured at −1 h, and then an intraperitoneal bolus of 2 g/kg glucose was applied at 0 h. Blood glucose was measured at 0, 15, 30, 60, and 120 min, and compound exposure was measured at 140 min.
as §2

Human GCGR [14] = target: T6, Human GCGR; assay: CRE-induced luciferase activity, HEK293 CRE-luc2P cells, human GCGR, in plasma; format: cell-based; conditions: for EC50: n = 3
[15] = Pharmacokinetics in Beagle dogs; format: in vivo; conditions: dog, SC injection, 10 nmol/kg, male Beagle dogs, N = 3, plasma, LC/MS/MS (Table S1)
Procedure: (§1) For pharmacokinetic analysis, male C57BL/6NRj mice (Janvier, France) were given a single intravenous (IV) or subcutaneous (SC) BI 456906 dose (20 nmol/kg; N = 3 per route). In addition, male Beagle dogs received an IV or SC dose of 5 nmol/kg or 10 nmol/kg (N = 3) BI 456906, respectively. Plasma samples were generated at different time points post dosing and stored at −20 °C until further analysis. Plasma concentrations of BI 456906 were measured using a liquid chromatography/tandem mass spectrometry (LC/MS/MS) method with a calibration range of 0.5–1000 nM on a QTRAP 6500+ (Sciex, Framingham, MA, USA). Samples were pre-treated with ethanol for protein precipitation before the analysis.

Pharmacokinetics in mice = format: in vivo
Procedure: as §1

endogenous mouse GLP-1R = target: T8, endogenous mouse GLP-1R (Mus musculus, UniProt O35659); assay: cAMP stimulation in mouse insulinoma MIN6 cells; format: cell-based
T8 construct: The EC50 for the endogenous mouse GLP-1R was assessed in the insulinoma cell line MIN6; endogenous in cells; host or cells: MIN6 mouse insulinoma cells
T8 sequence (O35659 22-463): T2 sequence (O35659 22-463)

[16] = target: endogenous mouse GLP-1R (mouse (endogenous in MIN6)) (UniProt O35659)
[17] = target: human glucagon receptor (human) (UniProt P47871)
Sequence of human glucagon receptor (human) (P47871 26-477): as above

[18] = target: human glucagon-like peptide-1 receptor (human) (UniProt P43220)
Sequence of human glucagon-like peptide-1 receptor (human) (P43220 24-463): as the sequence (P43220 24-463) above

[19] = target: human glucagon receptor (human) (UniProt P47871); remark: listed apart in the source
[20] = target: human glucagon-like peptide-1 receptor (human) (UniProt P43220); remark: listed apart in the source

## CC[C@H](C)[C@H](NC(=O)[C@H](Cc1ccccc1)NC(=O)[C@H](CC(=O)O)NC(=O)[C@H](CCCCN)NC(=O)[C@H](C)NC(=O)[C@H](C)NC(=O)[C@H](CCCNC(=N)N)NC(=O)[C@H](CCC(=O)O)NC(=O)[C@H](CC(=O)O)NC(=O)[C@H](CC(C)C)NC(=O)[C@H](Cc1ccc(O)cc1)NC(=O)[C@H](CCCCN)NC(=O)[C@H](CO)NC(=O)[C@H](Cc1ccc(O)cc1)NC(=O)[C@H](CC(=O)O)NC(=O)[C@H](CO)NC(=O)[C@@H](NC(=O)[C@H](Cc1ccccc1)NC(=O)[C@@H](NC(=O)CNC(=O)[C@H](CCC(N)=O)NC(=O)C1(NC(=O)[C@@H](N)Cc2c[nH]cn2)CCC1)[C@@H](C)O)[C@@H](C)O)C(=O)N[C@@H](CCCCNC(=O)CNC(=O)CNC(=O)[C@H](CO)NC(=O)CNC(=O)[C@H](CO)NC(=O)CNC(=O)CC[C@H](NC(=O)CCCCCCCCCCCCCCCCC(=O)O)C(=O)O)C(=O)N[C@@H](Cc1c[nH]c2ccccc12)C(=O)N[C@@H](CC(C)C)C(=O)N[C@@H](CCC(=O)O)C(=O)N[C@@H](CO)C(=O)N[C@@H](C)C(N)=O [BI 456906]
GCGR
  IC50: 0.437 nM
GLP-1R [1]
  ED50: 0.0021 µmol/kg
GLP-1R [2]
  ED50: 0.09 µmol/kg
Human GLP-1R [3]
  EC50: 0.33 nM
Endogenous GCGR [4]
  EC50: 18.6 nM
Human GLP-1R [5]
  EC50: 2.4 nM
Human GLP-1R [5]; DIO mice, plasma at study end, maximal dose of 30 nmol/kg
  ex vivo bioequivalence over EC50, GLP-1R: less than 1000 fold
[6]; DIO mice, 5, 10 or 20 nmol/kg SC QD for 9 days, indirect calorimetry
  energy expenditure (in words): dose-dependent increase in energy expenditure
[6]; DIO mice, therapeutic doses, implanted sensors
  core body temperature and activity (in words): did not increase core body temperature or activity
Human GLP-1R [7]; Human GLP-1R HEK293 Cre-Luc EC50, Mouse Plasma 100%, 100% mouse plasma, 4 h 37 °C
  EC50: 1.6 nM
Human GLP-1R [7]; Human GLP-1R HEK293 Cre-Luc pEC50±SD, Human Plasma 0.5%, 0.5% human plasma
  EC50: 0.0148 nM
Human GLP-1R [7]; Human GLP-1R HEK293 Cre-Luc pEC50±SD, Human Plasma 100%, 100% human plasma
  EC50: 1 nM
Human GLP-1R [7]; Human GLP-1R HEK293 Cre-Luc pEC50±SD, Mouse Plasma 0.5%, 0.5% mouse plasma
  EC50: 0.00759 nM
Human GLP-1R [7]; Human GLP-1R HEK293 Cre-Luc pEC50±SD, Mouse Plasma 100%, 100% mouse plasma
  EC50: 1.62 nM
Endogenous GCGR [8]
  EC50: 407 nM
Human GCGR [9]
  ex vivo bioequivalence over EC50, GCGR: < 100 fold
GLP-1R [10]; mouse, sc
  ED50: 0.041 µmol/kg
GLP-1R [10]; reduced acetaminophen excursion, single SC dose, lean mice
  inhibition of gastric emptying, effective doses (in words): effective only at higher doses of 100 and 300 nmol/kg
Human GCGR [11]
  EC50: 0.52 nM
Endogenous GCGR [12]
  EC50: 537 nM
GLP-1R [13]
  ED50: 0.004 µmol/kg
Human GCGR [14]; 0.5% human and mouse plasma
  fold less potent at the GCGR in relation to endogenous glucagon: ~6 fold
Human GCGR [14]; Human GCGR HEK293 Cre-Luc EC50, Human Plasma 0.5%, 0.5% human plasma in KRBH, 4 h 37 °C
  EC50: 0.29 nM
Human GCGR [14]; Human GCGR HEK293 Cre-Luc EC50, Human Plasma 100%, 100% human plasma, 4 h 37 °C
  EC50: 8.3 nM
Human GCGR [14]; Human GCGR HEK293 Cre-Luc EC50, Mouse Plasma 0.5%, 0.5% mouse plasma in KRBH, 4 h 37 °C
  EC50: 0.17 nM
Human GCGR [14]; Human GCGR HEK293 Cre-Luc EC50, Mouse Plasma 100%, 100% mouse plasma, 4 h 37 °C
  EC50: 16 nM
Human GCGR [14]; Human GCGR HEK293 Cre-Luc pEC50±SD, Human Plasma 0.5%, 0.5% human plasma
  EC50: 0.288 nM
Human GCGR [14]; Human GCGR HEK293 Cre-Luc pEC50±SD, Human Plasma 100%, 100% human plasma
  EC50: 8.32 nM
Human GCGR [14]; Human GCGR HEK293 Cre-Luc pEC50±SD, Mouse Plasma 0.5%, 0.5% mouse plasma
  EC50: 0.17 nM
Human GCGR [14]; Human GCGR HEK293 Cre-Luc pEC50±SD, Mouse Plasma 100%, 100% mouse plasma
  EC50: 15.5 nM
[15]
  Tmax: 51 h
[15]; read-out: mean residence time
  MRT: 140 h
Pharmacokinetics in mice; mouse pharmacokinetic profiles (Table S1)
  terminal half-life in mouse plasma compared with semaglutide (in words): longer terminal half-life
Pharmacokinetics in mice; mouse, SC injection, 20 nmol/kg single dose, male C57BL/6NRj mice, N = 3, plasma, LC/MS/MS (Table S1)
  Tmax: 7 h
Pharmacokinetics in mice; mouse, SC injection, 20 nmol/kg single dose, male C57BL/6NRj mice, N = 3, plasma, LC/MS/MS (Table S1), read-out: mean residence time
  MRT: 44 h
Endogenous mouse GLP-1R
  EC50: 0.36 nM

## glucagon-like peptide-1
[16]
  EC50 of cAMP generation, mouse insulinoma MIN6 cells (endogenous receptor): 0.06 nM

## BI 456906 (peptide)
[17]
  EC50 in the CRE-luciferase assay, HEK293 CRE-luc2P cells expressing recombinant GCGR, 0.5% human plasma: 0.29 nM
  EC50 in the CRE-luciferase assay, HEK293 CRE-luc2P cells expressing recombinant GCGR, 0.5% mouse plasma: 0.17 nM
  EC50 in the CRE-luciferase assay, HEK293 CRE-luc2P cells expressing recombinant GCGR, 100% human plasma: 8.3 nM
  EC50 in the CRE-luciferase assay, HEK293 CRE-luc2P cells expressing recombinant GCGR, 100% mouse plasma: 16 nM
[18]
  EC50 in the CRE-luciferase assay, HEK293 CRE-luc2P cells expressing recombinant GLP-1R, 100% human plasma: 1 nM
  EC50 in the CRE-luciferase assay, HEK293 CRE-luc2P cells expressing recombinant GLP-1R, 100% mouse plasma: 1.6 nM
[19]
  EC50 of cAMP generation (AlphaScreen cAMP assay), CHO-K1 cells expressing human GCGR, 0.1% BSA: 0.52 nM
[20]
  EC50 of cAMP generation (AlphaScreen cAMP assay), CHO-K1 cells expressing human GLP-1R, 0.1% BSA: 0.33 nM
[16]
  EC50 of cAMP generation, mouse insulinoma MIN6 cells (endogenous receptor): 0.36 nM
